Key:
[1] = biological target: T1, PHEX (Homo sapiens, UniProt P78562); settings: applicants previous observation (17); cited from earlier work
T1 sequence (P78562 1-749): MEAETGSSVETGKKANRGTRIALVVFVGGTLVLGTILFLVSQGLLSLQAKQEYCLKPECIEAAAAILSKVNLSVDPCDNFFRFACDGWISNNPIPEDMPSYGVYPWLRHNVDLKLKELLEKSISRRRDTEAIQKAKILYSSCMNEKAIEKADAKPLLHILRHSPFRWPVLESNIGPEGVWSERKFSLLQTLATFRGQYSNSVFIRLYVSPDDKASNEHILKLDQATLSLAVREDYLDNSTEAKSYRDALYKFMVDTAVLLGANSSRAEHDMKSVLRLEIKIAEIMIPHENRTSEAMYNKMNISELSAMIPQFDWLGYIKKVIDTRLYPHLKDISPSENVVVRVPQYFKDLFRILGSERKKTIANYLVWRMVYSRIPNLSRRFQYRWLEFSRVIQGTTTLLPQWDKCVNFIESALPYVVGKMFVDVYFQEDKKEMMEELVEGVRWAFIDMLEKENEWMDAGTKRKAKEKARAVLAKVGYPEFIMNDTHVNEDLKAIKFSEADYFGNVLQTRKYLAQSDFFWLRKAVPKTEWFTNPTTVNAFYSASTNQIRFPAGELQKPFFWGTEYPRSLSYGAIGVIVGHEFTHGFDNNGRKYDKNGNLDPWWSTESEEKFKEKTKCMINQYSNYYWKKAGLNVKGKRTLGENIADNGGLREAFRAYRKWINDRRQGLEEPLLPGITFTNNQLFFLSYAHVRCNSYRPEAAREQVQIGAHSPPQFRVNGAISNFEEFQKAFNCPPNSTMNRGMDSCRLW

[2] = biological target: T2, secPHEX (Homo sapiens, UniProt P78562); assay: secPHEX activity with NEP-specific substrate and inhibitor; format: biochemical; settings: thiorphan 10^−6 M, 10 μM substrate, 30 minutes
T2 construct: pure soluble form of PHEX (secPHEX); made in house
T2 sequence (P78562 46-749 limits assumed): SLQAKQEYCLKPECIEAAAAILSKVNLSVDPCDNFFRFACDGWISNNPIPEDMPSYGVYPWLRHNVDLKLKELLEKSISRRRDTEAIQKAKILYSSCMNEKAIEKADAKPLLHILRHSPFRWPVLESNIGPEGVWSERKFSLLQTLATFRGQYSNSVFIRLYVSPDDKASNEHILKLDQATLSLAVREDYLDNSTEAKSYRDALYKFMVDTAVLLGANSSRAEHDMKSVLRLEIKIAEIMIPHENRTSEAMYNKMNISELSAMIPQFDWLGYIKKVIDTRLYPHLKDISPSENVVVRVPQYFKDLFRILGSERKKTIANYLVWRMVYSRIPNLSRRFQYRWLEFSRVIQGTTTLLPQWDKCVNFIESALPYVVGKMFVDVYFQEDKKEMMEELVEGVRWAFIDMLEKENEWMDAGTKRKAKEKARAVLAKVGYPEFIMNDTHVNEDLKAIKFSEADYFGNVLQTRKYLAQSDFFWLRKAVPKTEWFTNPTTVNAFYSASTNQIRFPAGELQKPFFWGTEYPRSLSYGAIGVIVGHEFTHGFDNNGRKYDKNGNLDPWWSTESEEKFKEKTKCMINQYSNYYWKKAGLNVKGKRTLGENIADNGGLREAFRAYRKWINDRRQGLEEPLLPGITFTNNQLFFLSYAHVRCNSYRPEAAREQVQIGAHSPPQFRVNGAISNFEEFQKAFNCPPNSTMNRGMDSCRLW
Procedure: (§1) FIG. 4 graphically illustrates the activity of PHEX in the presence of NEP-specific substrate and inhibitor. NEP, secPHEX and membrane-bound PHEX (mPHEX) activities were measured after 30 minutes of incubation in presence of either 10 μM Abz-DRRL-EDDnp (SEQ ID NO:8) (A) or 10 μM Abz-GFSDYK(Dnp)-OH (SEQ ID NO:3) (B). Fluorescence detection (AFU) at γem=420 nm and γex=320 nm was determined as described under the heading “Experimental Procedures” below. When present, thiorphan, a NEP-specific inhibitor, was at a concentration of 10^−6 M. Data are a compilation of three different experiments;
(§2) The activities of membrane-bound PHEX and secPHEX were also compared with the NEP-specific substrate Abz-DRRL-EDDnp (SEQ ID NO:8) (46).

[3] = biological target: T3, membrane-bound PHEX (mPHEX) (Homo sapiens, UniProt P78562); assay: Membrane-bound PHEX activity with NEP-specific substrate and inhibitor; format: biochemical; settings: thiorphan 10^−6 M, 10 μM substrate, 30 minutes
T3 construct: expressed in transfected cells; host or cells: LLC-PK1 (porcine kidney cells)
Procedure: as §1, §2

[4] = system: NEP; assay: NEP activity with NEP-specific substrate and inhibitor; format: biochemical; settings: thiorphan 10^−6 M, 10 μM Abz-DRRL-EDDnp, 30 minutes
Procedure: as §1
The human recombinant secPHEX was obtained following the procedure previously described (17, WO 00/50580). Purified secPHEX concentration was determined using the Bradford method (DC protein assay kit; Bio-Rad, Mississauga, ON, Canada). Membrane-bound recombinant human PHEX was expressed in LLC-PK1 cells (17, (WO 00/50580)) and membranes were prepared essentially as described by Guo et al. (34). Briefly, transfected cells resuspended in lysis buffer (150 mM NaCl, 20 mM Tris.HCl, pH 7.6) were disrupted by sonication. […] Insoluble material was pelleted by centrifugation at 10,000 g for 15 min and protein concentrations of the supernatant determined using the Bradford method described above. PHEX amounts were evaluated by immunoblotting as described previously (17). […]

Row | Molecule | cleavage by PHEX [1] | inhibition of cleavage of Abz-GFSDYK(Dnp)-OH [2] | inhibition of cleavage of Abz-GFSDYK(Dnp)-OH [3] | inhibition of NEP activity [4]
1 | substance P | could not cleave |  |  | 
2 | O=C(O)CNC(=O)C(CS)Cc1ccccc1 (stereo not shown) [thiorphan] |  | did not prevent cleavage | did not prevent cleavage | completely inhibited
